Data: patent US20230271938A1, “BENZIMIDAZOLES FOR USE IN THE TREATMENT OF CANCER AND INFLAMMATORY DISEASES” (Capella Therapeutics, Inc., priority 2015, published 2023)

Assays:
Format in all cases: cell-based
[1] = test system: HCC827 human NSCLC adenocarcinoma cells (mutant ERBB1, deletion of E746-A759 in exon 19); test: Cell proliferation assay, HCC827; conditions: for Ratio (Wild-type ERBB1/Mutant ERBB1) HEKn/HCC827: GI50 ratio HEKn/HCC827; for GI50: Homo sapiens, HCC827 cells, 72 hrs; for Ratio (Wild-type ERBB1/Mutant ERBB1) A431/HCC827: GI50 ratio A431/HCC827
Experimental: (§1) The biological activity of a test compound was determined using cell proliferation assays. The activity against wild-type ERBB 1 was determined using A431 human epidermoid carcinoma cells (ATCC) and human epidermal keratinocytes, neonatal, or HEKn cells (ATCC).
(§2) A431 cells were grown in DMEM (Invitrogen) supplemented with 10% FBS (Lonza), 1% penicillin-streptomycin, and 2 mM glutamine (Invitrogen). HEKn cells were grown in EPILIFE® (Invitrogen) supplemented with HKGS (Invitrogen). HCC827 and H1975 were cultured in RPMI1640 supplemented with 10% FBS (Lonza), 1% penicillin-streptomycin, and 2 mM glutamine (Invitrogen). Cells were maintained and propagated at 37° C. and 5% CO2 in a humidified cell culture incubator. Aliquots of cells from early passages were preserved for liquid nitrogen storage. Frozen vials of cells were thawed at 37° C. water bath. Cells were spun to remove freezing medium. The newly revived frozen cells were adapted in culture for 10 days before used for compound testing. Cells used in the assay were less than 20 subculture passages or 3 months in culture.
(§3) The test compounds were dissolved in dimethylsulfoxide (DMSO) and stored at -20° C. before testing. […] The cells were placed in a culture incubator overnight. Next day, test compounds in DMSO were added to the cells and placed back in the culture incubator for 72 hrs. In the meantime, the cell numbers at time zero of the compound treatment (T0) was measured by ENERCOUNT® (Codex BioSolutions). At the end of the compound treatment, the cell numbers were again measured by EnerCount as T72 values. The untreated controls (Ctrl) were cell numbers recorded from the 0.1% DMSO treatment. The percent growth inhibition by the test compound was calculated by the formula: (1- (T72-T0)/(Ctrl-T0)) x 100.
(§4) The results are summarized in Tables 1 and 2, wherein A represents a value no greater than 500 nM, B represents a value greater than 500 nM but no greater than 1 µM, C represents a value greater than 1 µM but no greater than 5 µM, and D represents a value greater than 5 µM; and wherein A′ represents a ratio of greater than 10, B′ represents a ratio of no greater than 10 but no less than 5, C′ represents a ratio of no greater than 5 but no less than 2, and D′ represents a ratio of no greater than 2.

[2] = test system: H1975 human NSCLC adenocarcinoma cells (drug-resistant mutant ERBB1, T790M in-cis with L858R); test: Cell proliferation assay, H1975; conditions: for Ratio (Wild-type ERBB1/Mutant ERBB1) HEKn/H1975: GI50 ratio HEKn/H1975; for Ratio (Wild-type ERBB1/Mutant ERBB1) A431/H1975: GI50 ratio A431/H1975; for GI50: Homo sapiens, NCI-H1975, H1975 cells, 72 hrs
Experimental: as §1, §2, §3, §4

[3] = test system: human epidermal keratinocytes, neonatal, or HEKn cells (wild-type ERBB1); test: Cell proliferation assay, HEKn; conditions: Keratinocyte, 72 hrs
Experimental: as §1, §2, §3, §4

[4] = test system: A431 human epidermoid carcinoma cells (wild-type ERBB1); test: Cell proliferation assay, A431; conditions: A-431, 72 hrs
Experimental: as §1, §2, §3, §4

[5] = numeric values, reference compounds

GI50 [1, 5] [µM]	GI50 [1] [µM]	GI50 [2] [µM]	GI50 [4] [µM]	Structure (SMILES)	Ratio (Wild-type ERBB1/Mutant ERBB1) HEKn/HCC827 [1]	Ratio (Wild-type ERBB1/Mutant ERBB1) HEKn/H1975 [2]	GI50 [3, 5] [µM]	Ratio (Wild-type ERBB1/Mutant ERBB1) A431/HCC827 [1]	Ratio (Wild-type ERBB1/Mutant ERBB1) A431/H1975 [2]	GI50 [3] [µM]
0.032	–	–	–	C=CC(=O)Nc1cccc(Nc2nc(Nc3ccc(N4CCN(C(C)=O)CC4)cc3OC)ncc2C(F)(F)F)c1 [CO-1686]	A′ (A′ represents a ratio of greater than 10)	A′ (A′ represents a ratio of greater than 10)	2.5	–	–	–
–	< 0.5	< 0.5	< 0.5	C=CC(=O)N1CCCC[C@@H](n2c(NC(=O)c3ccnc(C)c3)nc3cccc(OC4CCN(CC)CC4)c32)C1 [Compound A1, (R)-N-(1-(1-Acryloylazepan-3-yl)-7-((1-ethylpiperidin-4-yl)oxy)-1H-benzo[d]imidazol-2-yl)-2-methylisonicotinamide]	A′ (A′ represents a ratio of greater than 10)	A′ (A′ represents a ratio of greater than 10)	–	A′ (A′ represents a ratio of greater than 10)	A′ (A′ represents a ratio of greater than 10)	1 to 5
–	< 0.5	< 0.5	> 5	C=CC(=O)N1CCC(Oc2cccc3nc(NC(=O)c4ccnc(C)c4)n([C@@H]4CCCCN(C(=O)C=C)C4)c23)CC1 [Compound A3, (R)-N-(1-(1-acryloylazepan-3-yl)-7-((1-acryloylpiperidin-4-yl)oxy)-1H-benzo[d]imidazol-2-yl)-2-methylisonicotinamide]	A′ (A′ represents a ratio of greater than 10)	A′ (A′ represents a ratio of greater than 10)	–	A′ (A′ represents a ratio of greater than 10)	B′ (B′ represents a ratio of no greater than 10 but no less than 5)	1 to 5
–	< 0.5	< 0.5	1 to 5	C=CC(=O)N1CCCC[C@@H](n2c(NC(=O)c3ccnc(C)c3)nc3cc(OC(F)(F)F)cc(Cl)c32)C1 [Compound A4, (R)-N-(1-(1-Acryloylazepan-3-yl)-7-chloro-5-(trifluoromethoxy)-1H-benzo[d]imidazol-2-yl)-2-methylisonicotinamide]	A′ (A′ represents a ratio of greater than 10)	C′ (C′ represents a ratio of no greater than 5 but no less than 2)	–	A′ (A′ represents a ratio of greater than 10)	C′ (C′ represents a ratio of no greater than 5 but no less than 2)	1 to 5
–	< 0.5	< 0.5	1 to 5	Cc1cc(C(=O)Nc2nc3cc(OC(F)(F)F)cc(Cl)c3n2[C@@H]2CCCCN(C(=O)/C=C/CN(C)C)C2)ccn1 [Compound A5, (R,E)-N-(7-Chloro-1-(1-(4-(dimethylamino)but-2-enoyl)azepan-3-yl)-5-(trifluoromethoxy)-1H-benzo[d]imidazol-2-yl)-2-methylisonicotinamide]	A′ (A′ represents a ratio of greater than 10)	A′ (A′ represents a ratio of greater than 10)	–	A′ (A′ represents a ratio of greater than 10)	C′ (C′ represents a ratio of no greater than 5 but no less than 2)	1 to 5
–	< 0.5	< 0.5	1 to 5	C=CC(=O)N1CCCC[C@@H](n2c(NC(=O)c3ccnc(C(F)(F)F)c3)nc3ccc4c(c32)OCCO4)C1 [Compound B1-A, (R)-N-(1-(1-acryloylazepan-3-yl)-7,8-dihydro-1H-[1,4]dioxino[2′,3′:3,4]benzo[1,2-d]imidazol-2-yl)-2-(trifluoromethyl)isonicotinamide]	–	–	–	–	–	> 5
–	< 0.5	< 0.5	1 to 5	C=CC(=O)N1CCCC[C@@H](n2c(NC(=O)c3ccnc(C)c3)nc3ccc4c(c32)OCCO4)C1 [Compound C1-A, (R)-N-(1-(1-acryloylazepan-3-yl)-7,8-dihydro-1H-[1,4]dioxino[2′,3′:3,4]benzo[1,2-d]imidazol-2-yl)-2-methylisonicotinamide]	–	–	–	–	–	1 to 5
–	< 0.5	< 0.5	1 to 5	C=CC(=O)N1CCCC[C@@H](n2c(NC(=O)c3ccnc(OC)c3)nc3ccc4c(c32)OCCO4)C1 [Compound C2-A, (R)-N-(1-(1-acryloylazepan-3-yl)-7,8-dihydro-1H-[1,4]dioxino[2′,3′:3,4]benzo[1,2-d]imidazol-2-yl)-2-methoxyisonicotinamide]	–	–	–	–	–	1 to 5
